From patent US5270302A, “Derivatives of tetrapeptides as CCK agonists” (priority 1991, dated 1993)
Where two headings read alike, the source gives them in different places. One block for each compound: values may come before it. *1 amine or outer side, *2 acyl side, *3 side chain or, on linkers, in order; H or OH if unused. Where a SMILES comes first, the peptide text is derived from it. Side-chain parts run from the residue outwards. [ ]: non-standard residue; d: D form. The star is where a group is joined. ξ: configuration not given here. ξαMeW = CC(N)(Cc1c[nH]c2ccccc12)C(=O)O; NMeF = CN[C@@H](Cc1ccccc1)C(=O)O; NMeD = CN[C@@H](CC(=O)O)C(=O)O; NH(2-Me-phenyl) = Cc1ccccc1N*; Boc = CC(C)(C)OC(=O)*; CO = O=C([*:1])[*:2]

What was measured:
guinea pig gallbladder = details: read-out: EC50 for contraction; isolated guinea pig gallbladder, 37° C.; 50% of the compound's own maximal contraction
Description: Guinea Pig Gallbladder Contraction
Gallbladders were obtained from male guinea pigs (250-300 gm). The bile was emptied by a small incision and the gallbladder was suspended in an organ bath. The tissue was maintained at 37° C., suspended in Krebs-Ringer buffer (mM: NaCl, 118; KCl, 4.7; CaCl2, 2.5; MgCl2, 1.2; NaH2 PO4, 1.2; NaHCO3, 25; choline chloride, 30 mM; glucose, 11) and bubbled with 95% O2 -5% CO2. Isometric contractions were recorded with a Grass polygraph. Baseline tension was set at 0.3 grams. After equilibration for approximately 30 minutes, CCK-8 (20 nM) was introduced and tensions were recorded. After reaching maximal contractions (about 5 minutes), the drug was washed out by overflow. The CCK-8 addition was repeated twice to ensure constant force of contraction.

Type-A CCK receptor = target: T1, Type-A CCK receptor (Cavia porcellus, UniProt Q63931); assay: Radioligand binding of [125I]BH-CCK-8 in guinea pig pancreatic membrane preparations
T1 construct: Cortical and pancreatic membranes were prepared as described; from tissue; host or cells: guinea pig pancreas membranes
T1 sequence (Q63931 1-430): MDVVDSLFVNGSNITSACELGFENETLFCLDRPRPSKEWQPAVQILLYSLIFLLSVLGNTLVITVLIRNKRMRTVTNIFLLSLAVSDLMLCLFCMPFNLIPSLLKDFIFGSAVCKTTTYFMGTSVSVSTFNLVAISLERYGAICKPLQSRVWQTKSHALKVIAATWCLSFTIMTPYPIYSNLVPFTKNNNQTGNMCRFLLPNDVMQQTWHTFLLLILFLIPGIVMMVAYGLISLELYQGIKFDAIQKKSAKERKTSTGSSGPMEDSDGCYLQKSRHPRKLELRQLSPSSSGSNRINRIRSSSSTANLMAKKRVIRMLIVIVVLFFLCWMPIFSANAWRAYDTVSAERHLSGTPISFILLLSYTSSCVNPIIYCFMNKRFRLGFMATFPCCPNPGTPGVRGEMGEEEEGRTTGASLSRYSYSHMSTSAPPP
Procedure, shortened: (§1)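 Membranes came from male guinea pig pancreas (type A) or cerebral cortex (type B) and were resuspended in pH 7.4 HEPES-EGTA-salt buffer containing bestatin and phosphoramidon. Test compounds competed with [125I]BH-CCK-8 in 0.1% BSA: cortex 150 min at 30 °C, pancreas 150 min at 37 °C. Reactions ended by filtration; IC50 from Hill analysis.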

Type-B CCK receptor = target: T2, Type-B CCK receptor (Cavia porcellus, UniProt H0VZC5); assay: Radioligand binding of [125I]BH-CCK-8 in guinea pig cerebral cortical membrane preparations
T2 construct: Cortical and pancreatic membranes were prepared as described; from tissue; host or cells: guinea pig cerebral cortex membranes
T2 sequence (H0VZC5 1-426): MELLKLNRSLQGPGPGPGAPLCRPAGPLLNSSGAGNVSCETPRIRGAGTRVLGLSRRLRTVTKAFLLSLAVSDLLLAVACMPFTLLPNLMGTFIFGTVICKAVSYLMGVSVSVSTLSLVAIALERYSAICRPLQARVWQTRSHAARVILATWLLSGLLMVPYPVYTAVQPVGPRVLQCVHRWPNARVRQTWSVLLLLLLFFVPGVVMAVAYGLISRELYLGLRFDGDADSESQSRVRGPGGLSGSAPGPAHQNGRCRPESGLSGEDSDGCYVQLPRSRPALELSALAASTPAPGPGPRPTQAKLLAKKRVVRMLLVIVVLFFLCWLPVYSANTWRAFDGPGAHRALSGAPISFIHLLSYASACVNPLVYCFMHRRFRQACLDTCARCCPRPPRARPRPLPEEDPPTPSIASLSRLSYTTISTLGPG
Procedure, shortened: as §1

rats [1] = assay: Feeding effects of acute administration of CCK agonists in rats (liquid diet); assay type: in vivo; details: i.p., acute (1 day)
Excerpt: Feeding Effects of Acute Administration of CCK Agonists in Rats
The experimental paradigm used in the above-mentioned chronic feeding studies was employed to establish dose reponses for CCK agonists of this invention on an acute (1 day) basis. Following an 8-day diet acclimation period, the rats were weighed and injected with vehicle. CCK-8 or test compound (see Table 7) at doses ranging from 1-1000 nmol/kg (i.p.). Six to ten minutes later, the rats were presented with the diet and intakes were recorded. No injections were administered prior to the P.M. feeding. Mean A.M. intakes as a percent of control were plotted versus log dose (nm/kg) to establish the dose response curve.

guinea pig acini = target: T3, guinea pig acini (Cavia porcellus, UniProt Q63931); assay: Amylase release assay in guinea pig pancreatic acini; assay type: cell-based; details: 30 minutes at 37° C., reference CCK-8 3×10^-10 M
T3 sequence (Q63931 1-430): T1 sequence (Q63931 1-430)
Description: Protocol for Amylase Release Assay
Guinea Pig Acini Preparation
Pancreas was dissected out and connective tissues and blood vessels were removed. The pancreas was cut into small pieces (2 mm) by a scissor and placed in a 15 mL conical plastic tube containing 2.5 mL of Krebs-Ringer HEPES (KRH) buffer plus 400 units per mL of collagenase. […] The buffer was supplemented with 1% MEM vitamins, 1% MEM amino acids and 0.001% aprotinin (pancreatic basic trypsin inhibitor). […] The supernatant was discarded and 6 mL of the KRH was added to the cell pellet. […] This wash procedure was repeated once. The cell pellet from the last centrifugation step was then resuspended in 15 mL of KRH containing 0.1% BSA. […] The filtrate, containing the acini, was centrifuged at 50×g for 3 minutes. The acini were then resuspended in 5 mL of KRH-BSA buffer for 30 minutes at 37° C. under 100% O2, with a change of fresh buffer at 15 minutes.
After the 30 minutes incubation time, the acini was resuspended in 100 volumes of KRH-BSA buffer, containing 3 μM phosphoramidon and 100 μM bestatin. […] Amylase activity in the supernatant and the cell pellet were separately determined after appropriate dilutions in 0.1% Triton X-100® (a non-ionic detergent available from Sigma Chemical Co.), 20 mM NaH2 PO4, pH 7.4, by Abbott Amylase A-gent® test using the Abbott Bichromatic Analyzer 200.

mice [2] = assay: Measurement of plasma insulin in mice following treatment with CCK-8 or a CCK agonist; assay type: in vivo; details: tail vein injection, 2 minutes
Description: Measurement of Plasma Insulin in Mice Following Treatment With CCK-8 or a CCK Agonist
Male mice, weighing from about 20 to about 30 g each, were used in all experiments. The animals were fed with laboratory lab chow and water ad libitum. CCK-8 or one the CCK agonist compounds of this invention was injected into the tail vein. Two minutes later, the animals were sacrificed and the blood was collected in 1.5 mL heparinized polypropylene tubes. The tubes were centrifuged at 10,000×g for 2 minutes. The insulin levels were determined in the supernatant, i.e., plasma, by radioimmuno assay (RIA) using kits obtained from Radioassay Systems Laboratory (Carson, CA.) or Novo Biolabs (Danbury, Conn.). The results of this assay are shown in Table 3 and are expressed as the percent increase in insulin secretion over insulin secretion observed in mice injected with a saline solution. Each dose was tested in at least six mice and the values presented are averages for the group of mice tested at each dose.

mice [3] = assay: Behavioral effect of CCK agonists in mice (suppression of locomotor activity); assay type: in vivo
Description: Behavioral Effect of CCK Agonists in Mice
The animals were placed on a slightly elevated metal grid and restrained by the thumb and forefinger at the level of the shoulders, thus immobilizing their heads. Injections were made with a 30 gauge needle with a "stop" consisting of a piece of tygon tubing to limit penetration of the needle to about 4.5 mm below the surface of the skin. The needle was inserted perpendicular to the skull at a midline point equidistant from each eye and an equal distance posterior from the level of the eyes such that the injection site and the two eyes form an equilateral triangle. The injection volume (5 ul) was expelled smoothly over a period of approximately 1 second.
Immediately after the injections the mice were placed in their cages and allowed a 15 minute recovery period prior to the beginning of behavioral observations.
For the behavioral observations, the mice were placed in clear plastic cages. Each cage measured 19×26×15 cm and contained a 60-tube polypropylene test tube rack place on end in the center of the cage to enhance exploratory activity. Observations were made every 30 seconds for a period of 30 minutes. […] Differences among groups were analyzed by Newman-Kewels analysis and a probability level of p<0.05 was accepted as significant.

rats [4] = assay: Feeding effect of CCK agonists in food-deprived rats; assay type: in vivo; details: i.p., dose 20 μg/kg, one hour feeding, vehicle 9.40 grams
Description: Feeding Effect of CCK Agonists in Rats
Forty male, Sprague-Dawley rats were subjected to a 23 hour food deprivation schedule for four days. On the fifth day, the animals were divided into five equal groups based on their previous (4th day) food intake. […] The amount of food consumed was measured after subtraction of spillage.

rats [5] = assay: Feeding effects of chronic administration of CCK-8 and CCK agonists in rat (liquid diet); assay type: in vivo; details: ip, 10 nmol/kg, 11 days of testing
Description: Feeding Effects of Chronic Administration of CCK-8 and CCK Agonists in Rat
Adult male Sprague-Dawley rats, weighing approximately 250 g, were placed on a restricted diet. Rats were weighed every morning and were allowed access to a liquid diet (Ensure®) for 60 minutes in the morning and 45 minutes in the late afternoon; intakes were recorded every 15 minutes. […] Six to 10 minutes later, the rats were presented with the diet, and intakes were recorded as usual. No injections were administered prior to the PM feeding. After 11 days of testing, half of the animals were sacrificed while the remaining rats were withdrawn from treatment and injected with vehicle for 4 days.

[6] = guinea pig pancreatic membranes, 37° C., 150 min, read-out: IC50 (nM) 125I-BH-CCK-8 Type-A receptor
[7] = guinea pig cortical membranes, 30° C., 150 minutes, read-out: IC50 (nM) 125I-BH-CCK-8 Type-B receptor

Compound: Cc1ccccc1NC(=O)NCCCC[C@H](NC(=O)[C@H](Cc1c[nH]c2ccccc12)NC(=O)OC(C)(C)C)C(=O)N[C@@H](CC(=O)O)C(=O)N(C)[C@@H](Cc1ccccc1)C(N)=O [Example 33, t-BOC-Trp-Lys(ε-N-(2-methylphenyl)aminocarbonyl)-Asp-(NMe)PheNH2] (Boc-WK([CO-NH(2-Me-phenyl)])D[NMeF]-NH2)
EC50 (guinea pig gallbladder): 0.01 µM

Compound: Cc1ccccc1NC(=O)NCCCC[C@H](NC(=O)[C@H](Cc1c[nH]c2ccccc12)NC(=O)OC(C)(C)C)C(=O)N(C)[C@@H](CC(=O)O)C(=O)N(C)[C@@H](Cc1ccccc1)C(N)=O [Example 61, t-BOC-Trp-Lys(ε-N-(2-methylphenyl)aminocarbonyl)(NMe)Asp-(NMe)PheNH2] (Boc-WK([CO-NH(2-Me-phenyl)])[NMeD][NMeF]-NH2)
IC50 (Type-A CCK receptor): 4.8 nM
IC50 (Type-B CCK receptor): 10000 nM
ED25, suppression of feeding (liquid diet) (rats [1]): 0.6 nmol/kg
ED50, dose required to decrease mean A.M. food intake by 50% (rats [1]): 2.6 nmol/kg

Compound: CCOC(=O)C(C)(Cc1c[nH]c2ccccc12)C(=O)N[C@@H](CCCCNC(=O)Nc1ccccc1C)C(=O)N[C@@H](CC(=O)O)C(=O)N(C)[C@@H](Cc1ccccc1)C(N)=O (stereo partly shown) [Example 107, (2-Carboethoxy-2-methyl-3-(3-indolyl)propionyl)-Lys(ε-N-(2-methylphenyl)amino-carbonyl)-Asp-(NMe)PheNH2]
IC50 (Type-A CCK receptor; [6]): 21 nM
IC50 (Type-B CCK receptor; [7]): 1400 nM
ED25, suppression of feeding (liquid diet) (rats [1]): 3.7 nmol/kg
ED50, dose required to decrease mean A.M. food intake by 50% (rats [1]): 26.1 nmol/kg

EC50 (guinea pig acini): 0.003 µM
Compound: t-BOC-Trp-Nle(6-((2-methylphenyl)aminocarbonyl)oxy)-Asp-(NMe)PheNH2 [Example 114]

Compound: Cc1ccccc1NC(=O)NCCCC[C@H](NC(=O)C(C)(N)Cc1c[nH]c2ccccc12)C(=O)N[C@@H](CC(=O)O)C(=O)N[C@@H](Cc1ccccc1)C(N)=O (stereo partly drawn) [Example 97, D,L-(α-Methyl)Trp-Lys(ε-N-(2-methylphenyl)aminocarbonyl)-Asp-PheNH2] (H-[ξαMeW]K([CO-NH(2-Me-phenyl)])DF-NH2)
IC50 (Type-A CCK receptor; IC50 (nM) 125I-BH-CCK-8 Type-A receptor, guinea pig pancreatic membranes, 37° C., 150 min): 11 nM
IC50 (Type-B CCK receptor; IC50 (nM) 125I-BH-CCK-8 Type-B receptor, guinea pig cortical membranes, 30° C., 150 minutes): 2600 nM
ED25, suppression of feeding (liquid diet) (rats [1]): 1.8 nmol/kg
ED50, dose required to decrease mean A.M. food intake by 50% (rats [1]): 9.4 nmol/kg

Compound: Cc1ccccc1NC(=O)NCCCC[C@H](NC(=O)C(Cc1c[nH]c2ccccc12)C(N)=O)C(=O)N[C@@H](CC(=O)O)C(=O)N(C)[C@@H](Cc1ccccc1)C(N)=O (stereo partly shown) [Example 106, (2-Aminocarbonyl-3-(3-indolyl)propionyl)-Lys(ε-N-(2-methylphenyl)aminocarbonyl)-Asp-(NMe)PheNH2]
IC50 (Type-A CCK receptor; [6]): 13 nM
IC50 (Type-B CCK receptor; [7]): > 10000 nM
ED25, suppression of feeding (liquid diet) (rats [1]): 6.9 nmol/kg
ED50, dose required to decrease mean A.M. food intake by 50% (rats [1]): 58.5 nmol/kg

Compound: CSCC[C@H](NC(=O)[C@H](Cc1ccc(OS(=O)(=O)O)cc1)NC(=O)[C@@H](N)CC(=O)O)C(=O)NCC(=O)N[C@@H](Cc1c[nH]c2ccccc12)C(=O)N[C@@H](CCSC)C(=O)N[C@@H](CC(=O)O)C(=O)N[C@@H](Cc1ccccc1)C(N)=O [CCK-8, Asp-Tyr(SO3 H)-Met-Gly-Trp-Met-Asp-PheNH2]
% Increase In Insulin Secretion Versus Saline Control (mice [2]; dose 3 nmole/kg): 65%
% Increase In Insulin Secretion Versus Saline Control (mice [2]; dose 10 nmole/kg): 85%
% Increase In Insulin Secretion Versus Saline Control (mice [2]; dose 30 nmole/kg): 90%
% Increase In Insulin Secretion Versus Saline Control (mice [2]; dose 100 nmole/kg): 70%
Minimal Effective Dose, suppression of locomotor activity (mice [3]; ICV administration): 3.0 nmol/mouse
Minimal Effective Dose, suppression of locomotor activity (mice [3]; IP administration): 0.001 µmol/kg
Mean Food Intake (rats [4]): 6.56 grams
AM liquid food intake versus controls (rats [5]): significantly reduced intakes on just the first and last treatment days
body weight gain versus controls (rats [5]): no significant effects on body weight gain
EC50 (guinea pig gallbladder): 0.0059 µM
